Consider nine compounds from ChEMBL document CHEMBL1201862, “PubChem BioAssay data set” (2004).

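Test compounds were applied to cells in 96-well plates for 48 hours at 5 doses. GI50 is the concentration that inhibits growth by half.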 Active and inactive are the calls of the source. No stated cut-off is given here; in the data, active = GI50 up to about 1.1 µM and inactive = higher.

Among the test systems are SF-539; HCC 2998; KM12; EKVX; SN12C; UACC-62; OVCAR-4; MOLT-4; SNB-75; SK-MEL-28; HT-29; SF-295; LOX IMVI; SK-MEL-5; HOP-62; RXF 393; COLO 205; SK-MEL-2.
Assay in all cases: growth of human tumour cells (NCI), 48 h

With `O=C(/C=C/c1ccco1)N1CCN(Cc2ccccc2)CC1`, the GI50 in the experiment with SF-539, in the experiment with HCC 2998, with KM12, in the experiment with EKVX, with SN12C and in the experiment with UACC-62 was > 100 µM (inactive) each time. The GI50 in the experiment with OVCAR-4, in the experiment on MOLT-4, with SNB-75, in the experiment on SK-MEL-28, in the experiment with HT-29 and in the experiment with SF-295 was > 100 µM (inactive) in each case. Also, the GI50 in the experiment with LOX IMVI, in the experiment on SK-MEL-5 and in the experiment with HOP-62 was > 100 µM (inactive) throughout.

For `O=C(NO)c1ccc(O)c(O)c1`, the GI50 in the experiment with SF-539, in the experiment with HCC 2998, in the experiment with KM12, in the experiment on EKVX, in the experiment with RXF 393 and in the experiment on SN12C was > 100 µM (inactive) in each case. Besides, the GI50 with UACC-62 is > 100 µM (inactive); in the experiment with OVCAR-4, > 100 µM (inactive); in the experiment with COLO 205, > 100 µM (inactive); with MOLT-4, 93.3 µM (inactive); in the experiment on SNB-75, > 100 µM (inactive); in the experiment with SK-MEL-28, > 100 µM (inactive). The GI50 in the experiment on HT-29 was > 100 µM (inactive); with SF-295, 29.5 µM (inactive); in the experiment with LOX IMVI, > 10 µM (inactive); in the experiment on SK-MEL-5, > 100 µM (inactive); with HOP-62, > 100 µM (inactive).

On to `Cc1cc(N(CCC#N)CCC#N)ccc1CC1N=C(c2ccccc2)OC1=O` (stereo not drawn), for which the GI50 in the experiment with SF-539, in the experiment with SK-MEL-2, in the experiment with HCC 2998, with KM12, with EKVX and in the experiment with SN12C was > 100 µM (inactive) in each case. For the same compound, the GI50 in the experiment with UACC-62, in the experiment on OVCAR-4, with COLO 205, in the experiment with MOLT-4, in the experiment on SNB-75 and in the experiment with SK-MEL-28 was > 100 µM (inactive) in each case. Besides, the GI50 with HT-29, with SF-295, with LOX IMVI, in the experiment with SK-MEL-5 and in the experiment on HOP-62 was > 100 µM (inactive) in each case.

Consider `CC(C)(Oc1ccc(C(=O)c2ccc(Cl)cc2)cc1Cl)C(=O)Nc1c(Cl)cccc1Cl`, for which the GI50 with SF-539 was > 100 µM (inactive); with SK-MEL-2, > 100 µM (inactive); in the experiment with KM12, > 100 µM (inactive); in the experiment with EKVX, > 100 µM (inactive); in the experiment with RXF 393, < 0.01 µM (active); in the experiment with UACC-62, > 100 µM (inactive). Besides, the GI50 in the experiment on MOLT-4 was 67.9 µM (inactive); with SK-MEL-28, > 100 µM (inactive); in the experiment with HT-29 it was > 100 µM (inactive); with SF-295, > 100 µM (inactive); in the experiment with LOX IMVI, > 100 µM (inactive); with SK-MEL-5, 20 µM (inactive). For the same compound, the GI50 with HOP-62 was > 100 µM (inactive).

With `C/C(=N\NC(=O)CC(=O)Nc1ccc(C)cc1)c1cc2ccccc2oc1=O`, the GI50 is > 100 µM (inactive) in the experiment on SF-539; > 100 µM (inactive) in the experiment on SK-MEL-2; > 100 µM (inactive) with KM12; > 100 µM (inactive) in the experiment with EKVX; 89.1 µM (inactive) in the experiment with RXF 393; > 100 µM (inactive) in the experiment with SN12C. Besides, the GI50 was > 100 µM (inactive) with UACC-62; > 100 µM (inactive) in the experiment with COLO 205; > 100 µM (inactive) in the experiment on MOLT-4; 20.2 µM (inactive) in the experiment on SNB-75; > 100 µM (inactive) with SK-MEL-28; > 100 µM (inactive) in the experiment on HT-29. Also, the GI50 with SF-295, with LOX IMVI, with SK-MEL-5 and in the experiment with HOP-62 was > 100 µM (inactive) throughout.

Regarding `CC(=O)c1ccc(N2C(=O)C3c4[nH]c5ccccc5c4C4CCC(C(C)(C)C)CC4C3C2=O)cc1` (stereo not drawn), the GI50 with SF-539 was 20.3 µM (inactive); with HCC 2998, 20.7 µM (inactive); in the experiment on EKVX, 30.5 µM (inactive); with RXF 393, 17.9 µM (inactive); with SN12C, 18.5 µM (inactive); with UACC-62 it was 21.1 µM (inactive). In addition, the GI50 is 30.9 µM (inactive) in the experiment on OVCAR-4; 15.2 µM (inactive) in the experiment with COLO 205; 30.1 µM (inactive) with MOLT-4; 22.6 µM (inactive) in the experiment on SNB-75; 28.8 µM (inactive) in the experiment with SK-MEL-28; 17.3 µM (inactive) in the experiment with HT-29. Further, the GI50 in the experiment with SF-295 was 28.7 µM (inactive); with SK-MEL-5, 25.6 µM (inactive); in the experiment on HOP-62, 19.5 µM (inactive).

In the case of `CC1C(=O)O[C@H]2C1CC[C@@]1(C)[C@H](O)CC[C@@]13C[C@]2(O)OO3` (stereo partly drawn), the GI50 in the experiment with HCC 2998, in the experiment with SN12C, in the experiment on UACC-62, with OVCAR-4, in the experiment on COLO 205 and in the experiment with MOLT-4 was > 100 µM (inactive) in each case. In addition, the GI50 in the experiment with SK-MEL-28, in the experiment with HT-29, in the experiment with SF-295, in the experiment on LOX IMVI, in the experiment with SK-MEL-5 and in the experiment with HOP-62 was > 100 µM (inactive) in each case.

On to `CN(CCS(=O)(=O)N1C(=O)C2CCCN2C(=O)[C@@H]1Cc1ccccc1)C(=O)OCc1ccccc1` (stereo partly drawn), for which the GI50 in the experiment with SF-539 is > 100 µM (inactive); in the experiment with HCC 2998, 40.2 µM (inactive); in the experiment on KM12, 48.2 µM (inactive); in the experiment with EKVX it was 30.9 µM (inactive); in the experiment with RXF 393, 28.6 µM (inactive); with SN12C it was 91.6 µM (inactive). For the same compound, the GI50 is 38.8 µM (inactive) in the experiment with UACC-62; 68.4 µM (inactive) with OVCAR-4; 58.5 µM (inactive) with COLO 205; 16.5 µM (inactive) in the experiment with MOLT-4; 33.4 µM (inactive) in the experiment with SNB-75; 93.5 µM (inactive) in the experiment on SK-MEL-28. Moreover, the GI50 in the experiment on HT-29 was 47.4 µM (inactive); with SF-295, 62.2 µM (inactive); in the experiment with LOX IMVI, 58.3 µM (inactive); in the experiment with SK-MEL-5, 25.8 µM (inactive); in the experiment with HOP-62 it was > 100 µM (inactive).

On to `CN(C(=O)c1cccs1)C(=S)N1CCN(c2ccccn2)CC1`, for which the GI50 in the experiment with SF-539, with SK-MEL-2, in the experiment on KM12, with RXF 393, in the experiment on SN12C and in the experiment on UACC-62 was > 100 µM (inactive) throughout. Also, the GI50 in the experiment on OVCAR-4, in the experiment on COLO 205, in the experiment on MOLT-4, with SNB-75, with SK-MEL-28 and with HT-29 was > 100 µM (inactive) throughout. For the same compound, the GI50 with SF-295, in the experiment on LOX IMVI, in the experiment with SK-MEL-5 and with HOP-62 was > 100 µM (inactive) throughout.
